Test results published in patent US20230363383A1, “COMBINATIONS OF CHLOROACETANILIDE HERBICIDES WITH SAFENERS” (UPL DO BRASIL INDUSTRIA E COMERCIO DE INSUMOS AGROPECUARIOS …, priority 2020, published 2023).
Read-outs that look alike come from different tables or passages of the source.

Columns and labels:
Type in all cases: in vivo
wheat crop [1] = details: seed treatment, average of 4 replications
Text: (§1) Mode of application for herbicides was spray and they were applied to soil after sowing of untreated seeds or seeds treated with safeners.
as §1

wheat crop [2] = details: spray to soil; for % Phytotoxicity 7 DAA: 7 days after administration; for % Phytotoxicity 7 DAA / % Phytotoxicity 14 DAA / % Phytotoxicity 21 DAA / % Phytotoxicity 28 DAA / % Phytotoxicity 35 DAA: average of 4 replications; for % Phytotoxicity 14 DAA: 14 days after administration; for % Phytotoxicity 21 DAA: 21 days after administration; for % Phytotoxicity 28 DAA: 28 days after administration; for % Phytotoxicity 35 DAA: 35 days after administration; for Plants Standing: untreated check 8.0 (Table 5) / 8.3 (Table 6)
Description: (§2) Experiments were carried out to evaluate the phytotoxicity, effect on plant height and effect on number of plants standing after treatments with combinations of one or more Chloroacetanilide herbicides with one or more safeners.
(§3) Application method was spray and applications were made to soil.
as §3

Lolium multiflorum = assay: % weed control of Lolium multiflorum, Propisochlor alone or with safener sprayed to soil; set-up: concentration or dose not given beside the values; details: spray to soil, average of 4 replications; for % Weed Control 7 DAA: 7 days after administration; for % Weed Control 14 DAA: 14 days after administration; for % Weed Control 21 DAA: 21 days after administration; for % Weed Control 28 DAA: 28 days after administration; for % Weed Control 35 DAA: 35 days after administration
Description: as §2
Below table gives summary of the formulation details and application details of Propisochlor and Mefenpyr-diethyl, Isoxadifen-ethyl and Cloquintocet-mexyl that were used in combination with Propisochlor for treatments. Application method was spray and applications were made to soil.
Below table gives summary of the formulation details and application details of Propisochlor and Dichlormid, Fenclorim, Benoxacor, Flurazole and Fluxofenim that were used in combination with Propisochlor for treatments. Application method was spray and applications were made to soil.
Below table gives summary of % weed control shown by untreated check, Propisochlor alone and combination of Propisochlor with Mefenpyr-diethyl, Isoxadifen-ethyl and Cloquintocet-mexyl at different application rates. % weed control was checked for weed Lolium multiflorum.
Below table gives summary of % weed control shown by untreated check, Propisochlor alone and combination of Propisochlor with Dichlormid, Fenclorim, Benoxacor, Flurazole and Fluxofenim at different application rates. % weed control was checked for weed Lolium multiflorum.

Row | Structure (SMILES) | % Phytotoxicity 7 DAA (wheat crop [2]) | % Phytotoxicity 14 DAA (wheat crop [2]) | % Phytotoxicity 21 DAA (wheat crop [2]) | % Phytotoxicity 28 DAA (wheat crop [2]) | % Phytotoxicity 35 DAA (wheat crop [2]) | Plants Standing (wheat crop [2]) | % Weed Control 7 DAA (Lolium multiflorum) | % Weed Control 14 DAA (Lolium multiflorum) | % Weed Control 21 DAA (Lolium multiflorum) | % Weed Control 28 DAA (Lolium multiflorum) | % Weed Control 35 DAA (Lolium multiflorum) | further results
1 | N#Cc1nn(-c2c(Cl)cc(C(F)(F)F)cc2Cl)c(N)c1[S+]([O-])C(F)(F)F (stereo not shown) [Treatment 1b] |  |  |  |  |  |  |  |  |  |  |  | Plant height 15 DAA (wheat crop [1]; Table 11, wheat crop, 15 DAA): 10.8; Standing Plants 15 DAA (wheat crop [1]; Table 11, wheat crop, 15 DAA): 22.5; Plant height 29 DAA (wheat crop [1]; Table 11, wheat crop, 29 DAA): 10.8; Standing Plants 29 DAA (wheat crop [1]; Table 11, wheat crop, 29 DAA): 33.8; % Phytotoxicity 7 DAA (wheat crop [1]; wheat crop, Propisochlor sprayed to soil after sowing, 7 DAA): 0%; % Phytotoxicity 14 DAA (wheat crop [1]; wheat crop, Propisochlor sprayed to soil after sowing, 14 DAA): 0%; % Phytotoxicity 21 DAA (wheat crop [1]; wheat crop, Propisochlor sprayed to soil after sowing, 21 DAA): 0%; % Phytotoxicity 28 DAA (wheat crop [1]; wheat crop, Propisochlor sprayed to soil after sowing, 28 DAA): 0%; % Phytotoxicity 35 DAA (wheat crop [1]; wheat crop, Propisochlor sprayed to soil after sowing, 35 DAA): 0%
2 | CCc1cccc(C)c1N(COC(C)C)C(=O)CCl [Treatment 2a] | 98.0% | 99.0% | 99.5% | 99.5% | 99.0% | 0.5 | 100% | 100% | 100% | 100% | 100% | 
3 | N#Cc1nn(-c2c(Cl)cc(C(F)(F)F)cc2Cl)c(N)c1[S+]([O-])C(F)(F)F (stereo not shown) [Treatment 9b] |  |  |  |  |  |  |  |  |  |  |  | Plant height 15 DAA (wheat crop [1]; Table 12, 15 DAA): 23.3; Standing Plants 15 DAA (wheat crop [1]; Table 12, 15 DAA): 10.8; Plant height 29 DAA (wheat crop [1]; Table 12, 29 DAA): 34.3; Standing Plants 29 DAA (wheat crop [1]; Table 12, 29 DAA): 10.8; % Phytotoxicity 8 DAA (wheat crop [1]; wheat crop, Propisochlor sprayed to soil after sowing, 8 DAA): 0%; % Phytotoxicity 15 DAA (wheat crop [1]; wheat crop, Propisochlor sprayed to soil after sowing, 15 DAA): 0%; % Phytotoxicity 22 DAA (wheat crop [1]; wheat crop, Propisochlor sprayed to soil after sowing, 22 DAA): 0%; % Phytotoxicity 29 DAA (wheat crop [1]; wheat crop, Propisochlor sprayed to soil after sowing, 29 DAA): 0%; % Phytotoxicity 36 DAA (wheat crop [1]; wheat crop, Propisochlor sprayed to soil after sowing, 36 DAA): 0%
4 | CCc1cccc(C)c1N(COC(C)C)C(=O)CCl [Treatment 10a] | 99.5% | 100% | 100% | 100% | 100% | 0.0 | 100.0% | 100.0% | 100.0% | 99.3% | 99.0% | 
